Drawing on patent US20250230153A1, “2,3-DIHYDROBENZO[B][1,4]DIOXIN-6-YL CONTAINING COMPOUNDS USEFUL AS IMMUNOMODULATORS” (BRISTOL-MYERS SQUIBB COMPANY, priority 2021, published 2025), this text covers IC50 for 18 compounds.

Broadly, the IC50 is the concentration at which inhibition is half-maximal. Low readings indicate inhibition by little substance, high ones a need for much substance.

The target in this assay is PD-1/PD-L1 (Homo sapiens (Human), UniProt Q9NZQ7). Put plainly: PD-1/PD-L1 Homogenous Time-Resolved Fluorescence (HTRF) binding assay. The following applies: PD-1-Ig (20 nM final)/PD-L1-His (10 nM final) binding assay. The text has this: The ability of the compounds of the invention to bind to PD-L1 was investigated using a PD-1/PD-L1 Homogenous Time-Resolved Fluorescence (HTRF) binding assay.
Chain of PD-1/PD-L1 (Q9NZQ7 18-239): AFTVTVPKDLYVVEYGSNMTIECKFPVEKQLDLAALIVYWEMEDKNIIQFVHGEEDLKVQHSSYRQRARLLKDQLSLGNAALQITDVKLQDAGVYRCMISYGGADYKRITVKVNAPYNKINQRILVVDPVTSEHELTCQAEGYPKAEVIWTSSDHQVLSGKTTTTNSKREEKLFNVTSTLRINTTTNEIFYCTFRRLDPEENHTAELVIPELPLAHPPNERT
The interaction of PD-1 and PD-L1 can be assessed using soluble, purified preparations of the extracellular domains of the two proteins. The PD-1 and PD-L1 protein extracellular domains were expressed as fusion proteins with detection tags, for PD-1, the tag was the Fc portion of Immunoglobulin (PD-1-Ig) and for PD-L1 it was the 6 histidine motif (PD-L1-His). All binding studies were performed in an HTRF assay buffer consisting of dPBS supplemented with 0.1% […] bovine serum albumin and 0.05% (v/v) Tween-20. For the h/PD-L1-His binding assay, inhibitors were pre-incubated with PD-L1-His (10 nM final) for 15m in 4 μl of assay buffer, followed by addition of PD-1-Ig (20 nM final) in 1 μl of assay buffer and further incubation for 15 m. HTRF detection was achieved using europium crypate-labeled anti-Ig (1 nM final) and allophycocyanin (APC) labeled anti-His (20 nM final). Antibodies were diluted in HTRF detection buffer and 5 μl was dispensed on top of the binding reaction. The reaction mixture was allowed to equilibrate for 30 minutes and the resulting signal (665 nm/620 nm ratio) was obtained using an EnVision fluorometer. Additional binding assays were established between the human proteins PD-1-Ig/PD-L2-His (20 & 5 nM, respectively) and CD80-His/PD-L1-Ig (100 & 10 nM, respectively).
Recombinant Proteins: Human PD-1 (25-167) with a C-terminal human Fc domain of immunoglobulin G (Ig) epitope tag [hPD-1 (25-167)-3S-IG] and human PD-L1 (18-239) with a C-terminal His epitope tag [hPD-L1(18-239)-TVMV-His] were expressed in HEK293T cells and purified sequentially by ProteinA affinity chromatography and size exclusion chromatography. Human PD-L2-His and CD80-His was obtained through commercial sources.
Homogenous Time-Resolved Fluorescence (HTRF) Assays of Binding of Soluble PD-1 to Soluble PD-L1. Soluble PD-1 and soluble PD-L1 refers to proteins with carboxyl-end truncations that remove the transmembrane-spanning regions and are fused to heterologous sequences, specifically the Fc portion of the human immunoglobuling G sequence (Ig) or the hexahistidine epitope tag (His). All binding studies were performed in an HTRF assay buffer consisting of dPBS supplemented with 0.1% (w/v) bovine serum albumin and 0.05% (v/v) Tween-20. For the PD-1-Ig/PD-L1-His binding assay, inhibitors were pre-incubated with PD-L1-His (10 nM final) for 15m in 4 μl of assay buffer, followed by addition of PD-1-Ig (20 nM final) in 1 μl of assay buffer and further incubation for 15 m. PD-L1 fusion proteins from either human, cynomologous macaques, mouse, or other species were used. HTRF detection was achieved using europium crypate-labeled anti-Ig monoclonal antibody (1 nM final) and allophycocyanin (APC) labeled anti-His monoclonal antibody (20 nM final). Antibodies were diluted in HTRF detection buffer and 5 μl was dispensed on top of binding reaction. The reaction was allowed to equilibrate for 30 minutes and signal (665 nm/620 nm ratio) was obtained using an EnVision fluorometer. Additional binding assays were established between PD-1-Ig/PD-L2-His (20 and 5 nM, respectively), CD80-His/PD-L1-Ig (100 and 10 nM, respectively) and CD80-His/CTLA4-Ig (10 and 5 nM, respectively).
Recombinant Proteins. Carboxyl-truncated human PD-1 (amino acids 25-167) with a C-terminal human Ig epitope tag [hPD-1 (25-167)-3S-IG] and human PD-L1 (amino acids 18-239) with a C-terminal His epitope tag [hPD-L1(19-239)-tobacco vein mottling virus protease cleavage site (TVMV)-His] were expressed in HEK293T cells and purified sequentially by recombinant Protein A affinity chromatography and size exclusion chromatography. Human PD-L2-His (Sino Biologicals), CD80-His (Sino Biologicals), CTLA4-Ig (RnD Systems) were all obtained through commercial sources.
Background: In TR-FRET formats the signal depends on donor and acceptor labels being close together.
Regarding `Cc1c(COc2cc(OCCN3CCCCC3)c(CNC(C)(CO)CO)cc2Cl)cccc1-c1ccc2c(c1)OCCO2` [Example 1044, 2-((5-Chloro-4-((3-(2,3-dihydrobenzo[b][1,4]dioxin-6-yl)-2-methylbenzyl)oxy)-2-(2-(piperidin-1-yl)ethoxy)benzyl)amino)-2-methylpropane-1,3-diol], the IC50 worked out at 2.1 nM.
The same measure for `Cc1c(COc2cc(OCC3CCC3)c(CN[C@](C)(CO)C(=O)O)cc2Cl)cccc1-c1ccc2c(c1)OCCO2` [Example 1048, (R)-2-((5-chloro-2-(cyclobutylmethoxy)-4-((3-(2,3-dihydrobenzo[b][1,4]dioxin-6-yl)-2-methylbenzyl)oxy)benzyl)amino)-3-hydroxy-2-methylpropanoic acid]: 11.1 nM.
Under `Cc1c(COc2cc(OCc3cncc(SCCC(=O)O)c3)c(CN[C@@](C)(CO)C(=O)O)cc2Cl)cccc1-c1ccc2c(c1)OCCO2` [Example 1014, (S)-2-((2-((5-((2-Carboxyethyl)thio)pyridin-3-yl)methoxy)-5-chloro-4-((3-(2,3-dihydrobenzo[b][1,4]dioxin-6-yl)-2-methylbenzyl)oxy)benzyl)amino)-3-hydroxy-2-methylpropanoic acid] stands 6.6 nM.
The same measure for `Cc1c(COc2cc(OCCN3CCCCC3)c(CN3CCCC[C@H]3C(=O)O)cc2Cl)cccc1-c1ccc2c(c1)OCCO2` [Example 1042, (S)-1-(5-Chloro-4-((3-(2,3-dihydrobenzo[b][1,4]dioxin-6-yl)-2-methylbenzyl)oxy)-2-(2-(piperidin-1-yl)ethoxy)benzyl)piperidine-2-carboxylic acid]: 0.6 nM; for `Cc1c(COc2cc(OCC3CCCN(C)C3)c(CN[C@@H](CO)C(=O)O)cc2Cl)cccc1-c1ccc2c(c1)OCCO2` (single isomer, unassigned) [Example 2005]: 1.9 nM; for `Cc1c(COc2cc(OCC3CCCN(C)C3)c(CN[C@@H](CO)C(=O)O)cc2Cl)cccc1-c1ccc2c(c1)OCCO2` (single isomer, unassigned) [Example 2006]: 2.8 nM.
For the compound `Cc1c(COc2cc(OCC3CCC3)c(CN3CCCC[C@H]3C(=O)O)cc2Cl)cccc1-c1ccc2c(c1)OCCO2` [Example 1050, (S)-1-(5-Chloro-2-(cyclobutylmethoxy)-4-((3-(2,3-dihydrobenzo[b][1,4]dioxin-6-yl)-2-methylbenzyl)oxy)benzyl)piperidine-2-carboxylic acid], the IC50 turned out to be 59.8 nM.
The same measure for `Cc1c(COc2cc(OCCCC(F)(F)F)c(CNC(C)(CO)CO)cc2Cl)cccc1-c1ccc2c(c1)OCCO2` [Example 1030, 2-((5-Chloro-4-((3-(2,3-dihydrobenzo[b][1,4]dioxin-6-yl)-2-methylbenzyl)oxy)-2-(4,4,4-trifluorobutoxy)benzyl)amino)-2-methylpropane-1,3-diol]: 6.5 nM; for `Cc1c(COc2cc(OCCN3CCOCC3)c(CN3CCCC[C@H]3C(=O)O)cc2Cl)cccc1-c1ccc2c(c1)OCCO2` [Example 1038, (S)-1-(5-Chloro-4-((3-(2,3-dihydrobenzo[b][1,4]dioxin-6-yl)-2-methylbenzyl)oxy)-2-(2-morpholinoethoxy)benzyl)piperidine-2-carboxylic acid]: 5.7 nM; for `Cc1c(COc2cc(OCc3cncc(C(=O)NS(C)(=O)=O)c3)c(CN3CCCC[C@H]3C(=O)O)cc2Cl)cccc1-c1ccc2c(c1)OCCO2` [Example 1021, (S)-1-(5-Chloro-4-((3-(2,3-dihydrobenzo[b][1,4]dioxin-6-yl)-2-methylbenzyl)oxy)-2-((5-((methylsulfonyl)carbamoyl)pyridin-3-yl)methoxy)benzyl)piperidine-2-carboxylic acid]: 5.7 nM.
With `Cc1c(COc2cc(OCC3CCCN(C)C3)c(CN[C@@](C)(CO)C(=O)O)cc2Cl)cccc1-c1ccc2c(c1)OCCO2` (stereo partly drawn) [Example 2003, (2S)-2-((5-chloro-4-((3-(2,3-dihydrobenzo[b][1,4]dioxin-6-yl)-2-methylbenzyl)oxy)-2-((1-methylpiperidin-3-yl)methoxy)benzyl)amino)-3-hydroxy-2-methylpropanoic acid], the IC50 came out at 6.5 nM.
Under `Cc1c(COc2cc(OCc3cnn(CC#N)c3)c(CN[C@@](C)(CO)C(=O)O)cc2Cl)cccc1-c1ccc2c(c1)OCCO2` [Example 1008, (S)-2-((5-chloro-2-((1-(cyanomethyl)-1H-pyrazol-4-yl)methoxy)-4-((3-(2,3-dihydrobenzo[b][1,4]dioxin-6-yl)-2-methylbenzyl)oxy)benzyl)amino)-3-hydroxy-2-methylpropanoic acid] stands 1.7 nM; under `COC(=O)CCSc1cncc(COc2cc(OCc3cccc(-c4ccc5c(c4)OCCO5)c3C)c(Cl)cc2CN[C@@](C)(CO)C(=O)O)c1` [Example 1006, (S)-2-((5-Chloro-4-((3-(2,3-dihydrobenzo[b][1,4]dioxin-6-yl)-2-methylbenzyl)oxy)-2-((5-((3-methoxy-3-oxopropyl)thio)pyridin-3-yl)methoxy)benzyl)amino)-3-hydroxy-2-methylpropanoic acid], 1.1 nM.
Under `Cc1c(COc2cc(OCCN3CCC(O)(C(=O)O)CC3)c(CN3CCCC[C@H]3C(=O)O)cc2Cl)cccc1-c1ccc2c(c1)OCCO2` [Example 1054, (S)-1-(2-(2-(4-Carboxy-4-hydroxypiperidin-1-yl)ethoxy)-5-chloro-4-((3-(2,3-dihydrobenzo[b]1[1,4]dioxin-6-yl)-2-methylbenzyl)oxy)benzyl)piperidine-2-carboxylic acid] stands 1.8 nM.
As to `Cc1c(COc2cc(OCc3cnn(-c4ccccn4)c3)c(CN[C@@](C)(CO)C(=O)O)cc2Cl)cccc1-c1ccc2c(c1)OCCO2` [Example 1011, (S)-2-((5-Chloro-4-((3-(2,3-dihydrobenzo[b][1,4]dioxin-6-yl)-2-methylbenzyl)oxy)-2-((1-(pyridin-2-yl)-1H-pyrazol-4-yl)methoxy)benzyl)amino)-3-hydroxy-2-methylpropanoic acid], the IC50 is 11 nM.
The same measure for `Cc1c(COc2cc(OCc3cncc(SCc4ccccc4)c3)c(CN3CCCC[C@H]3C(=O)O)cc2Cl)cccc1-c1ccc2c(c1)OCCO2` [Example 1010, (S)-1-(2-((5-(Benzylthio)pyridin-3-yl)methoxy)-5-chloro-4-((3-(2,3-dihydrobenzo [b][1,4]dioxin-6-yl)-2-methylbenzyl)oxy)benzyl)piperidine-2-carboxylic acid]: 43.4 nM; for `COC(=O)CCNS(=O)(=O)c1cncc(COc2cc(OCc3cccc(-c4ccc5c(c4)OCCO5)c3C)c(Cl)cc2CN[C@@](C)(CO)C(=O)O)c1` [Example 1018, (S)-2-((5-Chloro-4-((3-(2,3-dihydrobenzo[b][1,4]dioxin-6-yl)-2-methylbenzyl)oxy)-2-((5-(N-(3-methoxy-3-oxopropyl)sulfamoyl)pyridin-3-yl)methoxy)benzyl)amino)-3-hydroxy-2-methylpropanoic acid]: 4 nM.
Under `Cc1c(COc2cc(OCC3CCCN(C)C3)c(CN3CCCC[C@H]3C(=O)O)cc2Cl)cccc1-c1ccc2c(c1)OCCO2` (stereo partly drawn) [Example 2012, (2S)-1-(5-Chloro-4-((3-(2,3-dihydrobenzo[b][1,4]dioxin-6-yl)-2-methylbenzyl)oxy)-2-((1-methylpiperidin-3-yl)methoxy)benzyl)piperidine-2-carboxylic acid] stands 28.5 nM.
